≈ marks a conversion by molar mass, not a printed value.
What was measured:
[1] = system: Staphylococcus aureus ATCC 6738P; experiment: Agar-plate disc-diffusion test; assay type: cell-based; settings: compound suspended in water at 1 mg/ml, 7mm disc, 24-48 hours at 25-37° C.
[2] = system: Micrococcus luteus ATCC 9341; experiment: Agar-plate disc-diffusion test; assay type: cell-based; settings: 1 mg/ml, 7mm disc, 24-48 hours at 25-37° C.
[3] = system: Staphylococcus aureus X1.1; experiment: Standard agar-dilution test (MIC); assay type: cell-based
Method: (§1) The results of the antibacterial testing of a representative compound of formula 1, using the standard agar-dilution test, are summarized in Table II. In Table II activity is measured by the minimal inhibitory concentration (MIC), i.e. the lowest concentration of compound which inhibits the growth of the microorganism.

[4] = system: Staphylococcus epidermidis EPI2; experiment: Standard agar-dilution test (MIC); assay type: cell-based
Method: as §1

[5] = system: Staphylococcus epidermidis EPI1; experiment: Standard agar-dilution test (MIC); assay type: cell-based
Method: as §1

[6] = system: Staphylococcus aureus V41; experiment: Standard agar-dilution test (MIC); assay type: cell-based; settings: Staphylococcus aureus V41, penicillin-resistant strain
Method: as §1

[7] = system: Streptococcus Group D X66; experiment: Standard agar-dilution test (MIC); assay type: cell-based
Method: as §1

[8] = system: Streptococcus pyogenes C203; experiment: Standard agar-dilution test (MIC); assay type: cell-based
Method: as §1

[9] = system: Staphylococcus aureus S13E; experiment: Standard agar-dilution test (MIC); assay type: cell-based
Method: as §1

[10] = system: Staphylococcus aureus X400; experiment: Standard agar-dilution test (MIC); assay type: cell-based; settings: Staphylococcus aureus X400, methicillin-resistant strain
Method: as §1

Streptococcus Group 9960 = experiment: Standard agar-dilution test (MIC); assay type: cell-based
Method: as §1

[11] = system: Bacillus subtilis ATCC 6633; experiment: Agar-plate disc-diffusion test; settings: 1 mg/ml, 7mm disc
Method: ^a Compounds were suspended in water at a concentration of 1 mg/ml; a
7mm disc was dipped into the suspension and then placed on the agar
surface; incubation 24-48 hours at 25-37° C.

Staphylococcus aureus = experiment: In vivo activity against experimental bacterial infection; settings: mice, subcutaneous, two doses
Method: (§2) The representative A-21978C cyclic peptide of formula 1 has shown in vivo antimicrobial activity against experimental bacterial infections. When two doses of test compound were administered to mice in illustrative infections, the activity observed was measured as an ED50 value [effective dose in mg/kg to protect fifty percent of the test animals: See Warren Wick, et al., J. Bacteriol. 81, 233-235 (1961)].

Streptococcus pyogenes = experiment: as above; settings: mice, two doses
Method: as §2

[12] = B. subtilis ATCC 6633 grown on minimal nutrient agar
[13] = Bacillus subtilis ATCC 6633, 24-48 hours at 25-37° C.

Compound: CCCCCCCCCCCCOc1ccc(C(=O)N[C@@H](Cc2c[nH]c3ccccc23)C(=O)N[C@H](CC(N)=O)C(=O)N[C@@H](CC(=O)O)C(=O)N[C@@H]2C(=O)NCC(=O)N[C@@H](CCCN)C(=O)N[C@@H](CC(=O)O)C(=O)N[C@H](C)C(=O)N[C@@H](CC(=O)O)C(=O)NCC(=O)N[C@H](CO)C(=O)N[C@@H]([C@H](C)CC(=O)O)C(=O)N[C@@H](CC(=O)c3ccccc3N)C(=O)O[C@@H]2C)cc1 [NTrp --p-(n-Dodecyloxy)benzoyl-A-21978C, NTrp -p-(n-dodecyloxy)benzoyl-A-21978C Nucleus]
- Size of Zone of Inhibition [1]: 20 mm
- Size of Zone of Inhibition [2]: 18 mm
- MIC Values [3]: 1 µg/mL (≈ 0.57 µM)
- MIC Values [4]: 2 µg/mL (≈ 1.14 µM)
- MIC Values [5]: 4 µg/mL (≈ 2.28 µM)
- MIC Values [6]: 1 µg/mL (≈ 0.57 µM)
- MIC Values [7]: 2 µg/mL (≈ 1.14 µM)
- MIC Values [8]: 0.25 µg/mL (≈ 0.142 µM)
- MIC Values [9]: 1 µg/mL (≈ 0.57 µM)
- MIC Values [10]: 2 µg/mL (≈ 1.14 µM)
- MIC Values (Streptococcus Group 9960): 1 µg/mL (≈ 0.57 µM)
- Size of Zone of Inhibition [11, 12]: 20 mm
- Size of Zone of Inhibition [11, 13]: 13 mm
- ED50 Values (Staphylococcus aureus): 3.35 mg/kg × 2
- ED50 Values (Streptococcus pyogenes; oral): > 200 mg/kg × 2
- ED50 Values (Streptococcus pyogenes; subcutaneous): 0.31 mg/kg × 2

Compound: NTrp -p-(n-Dodecyloxy)benzoyl-NOrn -t-BOC-A-21978C Nucleus [p-(n-dodecyloxy)benzoyl t-BOC]
- Size of Zone of Inhibition [1]: 20 mm
- Size of Zone of Inhibition [2]: 15 mm
- Size of Zone of Inhibition [11, 12]: 22 mm
- Size of Zone of Inhibition [11, 13]: 10 mm

Source: USRE32310E, “Derivatives of A-21978C cyclic peptides” (Eli Lilly and Company, priority 1985, dated 1986)
